In patent US10144742B2 (Millennium Pharmaceuticals, Inc., priority 2014, dated 2018):
Read-outs that look alike come from different tables or passages of the source.

Legend:
hNAMPT protein = hNAMPT protein (Homo sapiens (Human), UniProt P43490); assay: NAMPT enzyme assay (TR-FRET/HTRF, BodiPY ligand, anti 6His-Tb); format: binding; conditions: for inhibition at 1 µM: read-out: Percent Inhibition; for IC50: read-out: IC50
Text: As discussed above, the invention provides compounds that are useful as inhibitors of the enzyme NAMPT. The NAMPT inhibition of a compound of the invention can be measured using a variety of methods known in the art. For example, the ability of a compound of the invention to inhibit NAMPT enzyme activity can be measured using a homogeneous time resolved fluorescence (HTRF) assay using hNAMPT protein and anti 6His-Tb in buffer treated with a compound of the invention (or control e.g., DMSO) and BodiPY ligand. The TR-FRET signal can be measured using a high throughput microplate reader (e.g., Pherastar). Excitation can be carried out at 320 nm. The percent inhibition value at a single concentration of compound of the invention can be calculated relative to a control treated sample. A concentration response curve can be generated for each compound of the invention and the curve fitted to generate an IC50 value. […] Cat. No. […] To this solution is added test compounds or vehicle control (DMSO) and BodiPY ligand (structure below). The plate is shaken for 1-2 min, sealed and incubated for 1 hour at rt in the dark. The TR-FRET signal is measured using BMG Pherastar (Lanthascreen protocol on BMG Pherastar). Excitation was carried out at 320 nm, and the ratio of emission of BodiPY (520 nm) to terbium (486 nm) was determined. Concentration response curves are generated by calculating the excitation increase in test compound-treated samples relative to DMSO-treated controls. For the assay method described above, test compound percent inhibition values at a single concentration are calculated relative to control (DMSO) treated samples. Compound concentration response curves are fitted to generate IC50 values from those curves. One skilled in the art will appreciate that these values generated either as percentage inhibition at a single concentration or IC50 values are subject to experimental variation.

PC3 cells = assay: PC3 growth inhibition (Cell-titer glo, 72 hours); format: cell-based; conditions: Homo sapiens, PC-3, PC3 cells, 72 hours, Cell-titer glo, read-out: Percent Inhibition (PC3 growth inhibition); for inhibition at 1.667 µM: compound concentration 1.667 μM; for inhibition at 1 µM: compound concentration 1 μM
Protocol: The ability of a compound of the invention to inhibit the growth of cells can be measured using a variety of methods known in the art. For example, the ability of a compound of the invention to inhibit the growth of PC3 cells can be measured. PC3 cells can be plated and incubated overnight under CO2. For each measurement, a compound of the invention (or vehicle e.g., DMSO) can be diluted with AIM serum free medium and added to the cell plate. The cell plate can then be incubated for 72 h under CO2. Cell-titer glo solution can be added and the plates can be incubated protected from light and the amount of luminescences can be measured. Concentration response curves can be generated by calculating the luminescence increase in test compound treated samples relative to DMSO-treated controls. Percentage remaining viability values at a single concentration can be measured. Growth inhibition (GI50) or cell viability (LD50) values can be determined from those curves.
Compounds of the invention were assayed to measure PC3 growth inhibition at a concentration of 1 μM or 1.667 μM (Table 3). To measure PC3 growth inhibition, PC3 cells that were maintained in PRMI1640 growth medium (Life Technologies; Cat. No. 11875) at 37° C. under 5% CO2 are trypsinized and diluted at a density of 8×10^4 cells/ml, 25 ul per well of cells and plated in 384-well black tissue culture plate. The cells are incubated overnight at 37° C. under 5% CO2. For each measurement, a test compounds or vehicle control (DMSO) are diluted with AIM serum free medium and added to the cell plate. Incubate for 72 hours at 37° C. under 5% CO2. 25 μl Cell-titer glo solution (Promega; Cat. No. G8462) is added and the cell plates are incubated for 10 minutes protected from light. The luminescence is measured. Concentration response curves are generated by calculating the luminescence increase in test compound-treated samples relative to DMSO-treated controls. Percentage remaining viability values at a single concentration, growth inhibition (GI50) or cell viability (LD50) values are determined from those curves. One skilled in the art will appreciate that these values are subject to experimental variation.

[1] = NAMPT inhibition at compound concentration 1 μM
[2] = NAMPT inhibition, IC50 range class

Sequence of hNAMPT protein (P43490 whole entry): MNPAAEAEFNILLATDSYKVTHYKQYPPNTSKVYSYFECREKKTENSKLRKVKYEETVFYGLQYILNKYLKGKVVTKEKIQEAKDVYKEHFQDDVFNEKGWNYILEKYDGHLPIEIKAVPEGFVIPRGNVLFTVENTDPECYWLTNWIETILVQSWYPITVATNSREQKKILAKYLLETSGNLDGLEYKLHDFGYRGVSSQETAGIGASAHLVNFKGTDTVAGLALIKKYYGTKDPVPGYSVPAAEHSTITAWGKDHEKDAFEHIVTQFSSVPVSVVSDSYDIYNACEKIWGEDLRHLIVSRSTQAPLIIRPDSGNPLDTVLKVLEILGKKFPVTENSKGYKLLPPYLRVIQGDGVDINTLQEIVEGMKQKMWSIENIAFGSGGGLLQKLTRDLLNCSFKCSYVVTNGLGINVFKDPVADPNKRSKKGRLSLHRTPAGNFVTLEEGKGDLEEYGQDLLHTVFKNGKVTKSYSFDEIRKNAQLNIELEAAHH

| SMILES | inhibition at 1 µM (hNAMPT protein; [1]) [%] | IC50 (hNAMPT protein; [2]) [nM] | inhibition at 1.667 µM (PC3 cells) [%] | IC50 (hNAMPT protein; NAMPT IC50 range class) [nM] | inhibition at 1 µM (hNAMPT protein) [%] | inhibition at 1 µM (PC3 cells) [%] | inhibition at 1 µM (hNAMPT protein; compound concentration 1 μM) [%] | inhibition at 1.852 µM (PC3 cells; compound concentration 1.852 μM) [%] |
| --- | --- | --- | --- | --- | --- | --- | --- | --- |
| Cc1ccc(-c2nc3cc(C(=O)NCCCc4ncc[nH]4)ccc3nc2-c2ccc(F)cc2)cn1 [Compound I-486, 2-(4-fluorophenyl)-N-[3-(1H-imidazol-2-yl)propyl]-3-(6-methylpyridin-3-yl)quinoxaline-6-carboxamide] | 78 | 100 to 500 | 2 | – | – | – | – | – |
| CC(C)(C)OC(=O)NCc1ccc(-c2nc3ccc(C(=O)NCCCn4ccnc4)cc3nc2-c2ccccc2)cc1 [Compound I-148, tert-Butyl [4-(6-{[3-(1H-imidazol-1-yl)propyl]carbamoyl}-3-phenylquinoxalin-2-yl)benzyl]carbamate] | – | – | – | 100 to 500 | 85 | 1 | – | – |
| O=C(NCCCc1ncc[nH]1)c1ccc2nc(C3CC3)c(-c3ccc(F)cc3)nc2c1 [Compound I-357, 2-cyclopropyl-3-(4-fluorophenyl)-N-[3-(1H-imidazol-2-yl)propyl]quinoxaline-6-carboxamide] | – | – | 1 | 100 to 500 | – | – | 83 | – |
| O=C(NCCCn1ccnc1)c1ccc2nc(N3CCS(=O)(=O)CC3)c(-c3ccccc3)nc2c1 [Compound I-289, 2-(1,1-dioxidothiomorpholin-4-yl)-N-[3-(1H-imidazol-1-yl)propyl]-3-phenylquinoxaline-6-carboxamide] | – | – | – | 1000 to 2000 | – | -7 | 45 | – |
| O=C(NCCCc1ncc[nH]1)c1ccc2nc(OCc3ccccc3Cl)c(-c3ccc(F)cc3)nc2c1 [Compound I-454, 2-[(2-chlorobenzyl)oxy]-3-(4-fluorophenyl)-N-[3-(1H-imidazol-2-yl)propyl]quinoxaline-6-carboxamide] | 95 | < 100 | 2 | – | – | – | – | – |
| COc1cccc(-c2nc3cc(C(=O)NCCc4cccnc4)ccc3nc2Cl)c1 [Compound I-73, 2-Chloro-3-(3-methoxyphenyl)-N-[2-(pyridin-3-yl)ethyl]quinoxaline-6-carboxamide] | – | – | – | 1000 to 2000 | – | – | 13 | > 99 |
| NCc1nc2ccc(C(=O)NCCCn3ccnc3)cc2nc1-c1ccccc1 [Compound I-10, 2-(aminomethyl)-N-[3-(1H-imidazol-1-yl)propyl]-3-phenylquinoxaline-6-carboxamide] | – | – | – | 2000 to 10000 | – | 99 | 23 | – |
| NC(=O)c1ccc(-c2nc3cc(C(=O)NCCCn4ccnc4)ccc3nc2-c2ccccc2)cc1 [Compound I-6, 3-(4-carbamoylphenyl)-N-[3-(1H-imidazol-1-yl)propyl]-2-phenylquinoxaline-6-carboxamide] | – | – | – | 2000 to 10000 | – | 91 | 20 | – |
| O=C(NCCCn1ccnc1)c1ccc2nc(NC3CCC3)c(-c3ccccc3)nc2c1 [Compound I-274, 2-(cyclobutylamino)-N-[3-(1H-imidazol-1-yl)propyl]-3-phenylquinoxaline-6-carboxamide] | – | – | – | 2000 to 10000 | – | -5 | 25 | – |
| O=C(CCCn1ccnc1)Nc1ccc2nc(-c3ccc(F)cc3)c(-c3ccc(F)cc3)nc2c1 [Compound I-72, N-[2,3-Bis(4-fluorophenyl)quinoxalin-6-yl]-4-(1H-imidazol-1-yl)butanamide] | – | – | – | 1000 to 2000 | – | 2 | 46 | – |
| O=C(NCCCc1ncc[nH]1)c1ccc2nc(-c3ccc(F)cc3)c(-c3cncs3)nc2c1 [Compound I-325, 2-(4-fluorophenyl)-N-[3-(1H-imidazol-2-yl)propyl]-3-(1,3-thiazol-5-yl)quinoxaline-6-carboxamide] | – | – | 4 | < 100 | – | – | > 99 | – |
| O=C(NCCc1cn2c(n1)SCC2)c1ccc2nc(-c3ccc(F)cc3)c(-c3ccc(F)cc3)nc2c1 [Compound I-238, N-[2-(2,3-dihydroimidazo[2,1-b][1,3]thiazol-6-yl)ethyl]-2,3-bis(4-fluorophenyl)quinoxaline-6-carboxamide] | – | – | – | 2000 to 10000 | – | 96 | 19 | – |
